Literature values, collected in patent US20110104279A1, “HEALING POWDER AND METHOD OF USE THEREOF” (priority 2009, published 2011).

How the values were obtained:
[1] = system: full thickness wounds in the backs of pigs; conditions: wounds 25 mm square, 9 mm deep, packed and covered with Opsite
[2] = system: acute mediastinitis wounds; conditions: 19 patients, wounds packed every 3 to 4 hours

Row | SMILES | wound healing compared with wounds covered with Opsite alone [1] | average time of treatment to near complete debridement, granulation tissue formation and eradication of bacterial infection [2] [days]
1 | N=C(NCCCCCCNC(=N)NC(=N)Nc1ccc(Cl)cc1)NC(=N)Nc1ccc(Cl)cc1.O=C(O)[C@H](O)[C@@H](O)[C@H](O)[C@H](O)CO.O=C(O)[C@H](O)[C@@H](O)[C@H](O)[C@H](O)CO [chlorhexidine gluconate] | delayed healing | –
2 | OC[C@H]1O[C@@](CO)(O[C@H]2O[C@H](CO)[C@@H](O)[C@H](O)[C@H]2O)[C@@H](O)[C@@H]1O [granular sugar, sucrose] | – | 7.6
